Experiments:
[1] = Example V: chronic oral treatment of man with mild hypertension and coronary artery atherosclerosis; assay type: in vivo, human; conditions: oral 5 mg/kg every 4 hours, free drug or with antioxidants/vitamins, with or without L-arginine
Protocol: He is treated with 5 mg/kg N^ω-hydroxy-L-arginine every 4 hours orally as either free drug or in admixture with antioxidant agents and vitamins (e.g., ascorbate, alpha-tocopherol, vitamin B6, vitamin B12, folate (folic acid), carotenoids, coenzyme Q10, phytoestrogens (including isoflavonoids), selenium, butylated hydroxytoluene (BHT), butylated hydroxyanisole (BHA) and n-3 polyunsaturated fatty acids (PUFA)) with or without L-arginine supplementation (20 mg/kg every 4 hours). The mixture is delivered as a nutriceutical. Blood pressure normalizes to less than 130/80 mm Hg and angiographic evidence indicates atherosclerosis progression is less than 10% additional over the next five years.

eNOS [2] = molecular target: T1, eNOS (Bos taurus, UniProt P29473); experiment: Total nitrate/nitrite (Greiss assay) production by BH4- or BH2-bound eNOS from arginine or N-hydroxyarginine; assay type: biochemical; conditions: for production of nitric oxide (total nitrate/nitrite) from substrate by BH2-bound eNOS / production of nitric oxide (total nitrate/nitrite) from substrate by BH4-bound eNOS: substrate 100 μM, eNOS 10 pmol, 1 hour at 37° C.; for production of nitric oxide (total nitrate/nitrite) from substrate by BH2-bound eNOS: BH2 10 μM; for production of nitric oxide (total nitrate/nitrite) from substrate by BH4-bound eNOS: BH4 10 μM
T1 construct: made in house
Protocol: (§1) The eNOS used in Reference Examples 1, 2, 3 and 4 was made as described in Martasek, P., et al., Biochem. Biophys. Res. Commn 219, 359-365 (1996).
All samples were 100 microliter total volume and contained assay buffer (Tris.HCl pH 7.6 (50 mM), DTT (1 mM), calcium (100 μM), and calmodulin (100 nM)). In the assay buffer, eNOS (10 pmol), either BH4 (10 μM) or BH2 (10 μM), and either L-arginine (100 μM) or N^ω-hydroxy-L-arginine (100 μM) were introduced. In some experiments, the nitric oxide synthase inhibitor N^ω-methyl-L-arginine (NMA, 1 mM) was additionally added or the required NO synthase cofactor calmodulin was omitted (No CaM). Incubations were for 1 hour at 37° C. Total nitrate/nitrite (as a measure of nitric oxide) was measured by the Greiss assay as described in “Methods of Nitric Oxide Research,” edited by Feelisch, M. and Stamler, J. S., John Wiley & Sons Ltd. (1996) at pages 491-497. Results are shown in FIGS. 3(a), 3(b), 3(c) and 3(d). […] Data represent means±SEM values of quadruplicate determinations.

[3] = Example I: ointment applied to toes of male with Type I diabetes; assay type: in vivo, human; conditions: 1% by weight ointment four times a day
Text: A person with Type I diabetes presents with symptoms of pain in toes and loss of pink color (gray tissue tone) in toes. An ointment containing 1% by weight N^ω-hydroxy-L-arginine is applied to the toes four times a day.

[4] = Example III: blood pressure and vascular resistance in hypertensive female; assay type: in vivo, human; conditions: single 10 mg/kg intravenous dose, one hour after
Protocol: A person has moderate hypertension (150/100 mm Hg) and elevated vascular resistance. One hour after receiving a single 10 mg/kg intravenous dose of N^ω-hydroxy-L-arginine, mean arterial blood pressure is diminished by 14 mm Hg and systemic vascular resistance is reduced by 10%.

eNOS [5] = molecular target: T1, eNOS; experiment: Concentration dependence of nitric oxide synthesis from N-hydroxyarginine by BH2- or BH4-bound eNOS; assay type: biochemical; conditions: eNOS 10 pmol preincubated with BH2 10 μM or BH4 10 μM; 1 hour at 37° C.; FIG. 4
Protocol: as §1
eNOS (10 pmol) was preincubated for 30 minutes at 37° C. in the presence of either BH2 (10 μM) or BH4 (10 μM) in assay buffer (Tris.HCl pH 7.6 (50 mM), DTT (1 mM), calcium (100 μM) and calmodulin (100 nM)). Then N^ω-hydroxy-L-arginine (denoted “Hydroxyarginine” in FIG. 4) was added (concentrations as disclosed in FIG. 4) and incubations were 100 microliter total volume and were allowed to proceed for 1 hour at 37° C. Nitric oxide production was assessed from accumulation of its stable oxidation products (nitrite and nitrate), quantified by a modified Greiss assay (reference recited in Reference Example 3). Data are mean±SEM values of quadruplicate determinations.

[6] = Example IV: chronic oral therapy after stroke; assay type: in vivo, human; conditions: oral 5 mg/kg every 4 hours, alone or combined with L-arginine 20 mg/kg every 4 hours
Protocol: A person suffers from type 2 diabetes (adult onset diabetes or insulin resistant diabetes), coronary artery disease and hypertension (a not uncommon composite of conditions), experiences a stroke resulting in acute left-sided paralysis owing to right middle cerebral artery occlusion. Surviving the stroke, the patient is placed on chronic oral therapy with N^ω-hydroxy-L-arginine, 5 mg/kg every 4 hours, or a combination of this with L-arginine, 20 mg/kg every 4 hours.

[7] = Example II: treadmill test in male with coronary artery disease; assay type: in vivo, human; conditions: oral 10 mg/kg, within 90 minutes after dose; 3 mph, 5% incline; before treatment pain after 10 minutes
Protocol: A person with coronary artery disease develops chest pain and electrocardiographic evidence of angina after 10 minutes on a treadmill at 3 mph and 5% incline. Within 90 minutes after an oral dose of 10 mg/kg of N^ω-hydroxy-L-arginine, the subject is able to walk on the treadmill at 3 mph and 5% incline for 25 minutes without pain or evidence of […].

eNOS [8] = molecular target: T1, eNOS; experiment: EPR (DEPMPO spin-trap) assessment of superoxide production by pterin-bound eNOS; assay type: biochemical; conditions: 7 pmol eNOS; BH4 10 μM in buffer; subsequent addition of sepiapterin 50 μM or BH2 1 mM; FIGS. 2(a)-(c)
Protocol: as §1
Assay buffer utilized contained HEPES (50 mM, pH 7.4), calcium (0.2 mM), calmodulin (10 μg/ml), NADPH (0.1 mM), L-arginine (0.1 mM), tetrahydrobiopterin (10 μM), DEPMPO (structure shown in upper right of FIG. 2(a)) (50 mM), and diethylenetriamine pentaacetic acid (DTPA) (0.1 mM). Included was 7 pmol eNOS. Incubation was for 15 min at 22° C. Subsequent addition was either of sepiapterin (50 μM) or BH2 (1 mM). The DEPMPO functions as a probe (spin-trap) that selectively captures superoxide anion. Electron paramagnetic resonance (EPR) was carried out to determine superoxide production. EPR was carried out at microwave power of 2 mW, modulation amplitude 1G, time constant 0.128 seconds, scan rate 1.6 G/s, gain 1.25×10E5, number of scans 10.

eNOS [9] = molecular target: T2, eNOS (Bos taurus, UniProt P29473); experiment: [3H]tetrahydrobiopterin competition binding to eNOS (96-well filtration plate assay); conditions: [3H]BH4 10 pmoles, eNOS 3 pmoles, 15 minutes at 22° C., FIG. 1
T2 construct: made in house
T2 sequence (P29473 1-1205): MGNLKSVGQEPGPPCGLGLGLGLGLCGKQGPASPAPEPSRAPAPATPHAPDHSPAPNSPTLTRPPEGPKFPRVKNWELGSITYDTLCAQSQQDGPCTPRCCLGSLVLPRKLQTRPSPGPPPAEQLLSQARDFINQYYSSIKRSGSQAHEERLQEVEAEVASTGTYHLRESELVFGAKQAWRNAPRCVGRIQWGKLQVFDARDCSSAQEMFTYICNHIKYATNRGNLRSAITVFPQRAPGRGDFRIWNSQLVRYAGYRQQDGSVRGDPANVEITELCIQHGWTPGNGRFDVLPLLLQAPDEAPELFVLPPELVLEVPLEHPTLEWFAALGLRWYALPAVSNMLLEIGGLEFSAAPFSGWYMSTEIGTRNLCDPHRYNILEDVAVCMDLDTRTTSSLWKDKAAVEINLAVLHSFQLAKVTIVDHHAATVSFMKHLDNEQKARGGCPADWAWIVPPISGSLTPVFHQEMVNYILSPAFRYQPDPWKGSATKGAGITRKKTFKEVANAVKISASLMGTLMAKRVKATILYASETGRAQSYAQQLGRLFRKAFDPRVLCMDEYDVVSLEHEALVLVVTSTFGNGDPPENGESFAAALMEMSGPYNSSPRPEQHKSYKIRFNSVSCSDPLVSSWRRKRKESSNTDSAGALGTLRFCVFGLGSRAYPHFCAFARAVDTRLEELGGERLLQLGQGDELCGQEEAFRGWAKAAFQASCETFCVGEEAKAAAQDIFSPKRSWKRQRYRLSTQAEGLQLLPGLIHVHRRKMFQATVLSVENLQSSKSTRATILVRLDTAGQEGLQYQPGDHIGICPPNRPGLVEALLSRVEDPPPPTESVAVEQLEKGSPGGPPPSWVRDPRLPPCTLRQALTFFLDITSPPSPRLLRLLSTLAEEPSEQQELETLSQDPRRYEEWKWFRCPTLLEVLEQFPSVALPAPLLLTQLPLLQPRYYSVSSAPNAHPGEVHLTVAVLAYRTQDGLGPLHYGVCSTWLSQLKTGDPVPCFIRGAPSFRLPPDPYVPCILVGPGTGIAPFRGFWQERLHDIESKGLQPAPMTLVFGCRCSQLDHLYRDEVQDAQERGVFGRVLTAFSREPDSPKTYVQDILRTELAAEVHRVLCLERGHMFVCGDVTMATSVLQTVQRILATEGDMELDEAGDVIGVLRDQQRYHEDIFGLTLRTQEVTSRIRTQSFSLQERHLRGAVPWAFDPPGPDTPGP
Protocol: as §1
Increasing concentrations of unlabeled pterins were incubated for 15 minutes at 22° C. with [^3]tetrahydrobiopterin ([^3H]BH4), 10 pmoles, and eNOS, 3 pmoles, in binding buffer which is Tris.HCl, pH 7.5, (50 mM), and dithiothreitol (DTT) (1 mM), in a 100 microliter volume in each well in a 96-well filtration plate assay. The pterins used include 5,6,7,8-tetrahydrobiopterin (BH4), 7,8-dihydrobiopterin (BH2), 6-methyltetrahydrobiopterin (6 MePH4) and sepiapterin. Data which are shown in FIG. 1 are mean±SEM values of triplicate determinations. Similar results were obtained in four separate experiments. In FIG. 1, the squares denote BH4 for the naturally occurring (R)-stereoisomer of BH4 and represent BH4, the triangles represent BH2, the diamonds represent 6 MePH4, and the circles represent sepiapterin. In FIG. 1, the term “Inhibitor” in the horizontal legend means pterin analog and is generic for BH4, BH2, 6MePH4 and sepiapterin. Incubations were carried out at the concentrations indicated by the data points in FIG. 1. This experiment is to compare the ability of the named pterins to compete for [^3H]BH4 binding to eNOS.

**Q.** Which results are given for `N=C(NO)NCCC[C@H](N)C(=O)O` [N^ω-hydroxy-L-arginine]?
**A.** atherosclerosis progression (angiographic) over the next five years [1]: less than 10%; blood pressure after treatment ([1]; baseline 140/90 mm Hg): less than 130/80; production of nitric oxide (total nitrate/nitrite) from substrate by BH2-bound eNOS (eNOS [2]): does cause production of nitric oxide; production of nitric oxide (total nitrate/nitrite) from substrate by BH4-bound eNOS (eNOS [2]): causes production of nitric oxide; blood perfusion [3]: Blood perfusion is increased; pain in toes ([3]; within 48 hours): pain diminishes; tissue colour of toes ([3]; within 48 hours): tissue becomes pinker; decrease of mean arterial blood pressure [4]: 14 mm Hg; reduction of systemic vascular resistance [4]: 10%; production of nitrogen oxides (nitrite and nitrate) by eNOS from the substrate (eNOS [5]): supports the production of nitrogen oxides by eNOS in the presence of either BH2 or BH4; recurrence of stroke within the next two years [6]: no recurrence of stroke; time able to walk on treadmill without pain or evidence of angina [7]: 25 min

**Q.** Which results are given for `CNC(=N)NCCC[C@H](N)C(=O)O` [NMA, N^ω-methyl-L-arginine]?
**A.** block of arginine conversion to nitric oxide by BH4-bound eNOS (eNOS [2]; NMA 1 mM added, L-arginine 100 μM): > 90%; effect on N-hydroxyarginine conversion to nitric oxide by BH2-bound eNOS (eNOS [2]; NMA 1 mM added, N-hydroxy-L-arginine 100 μM): < 30%

**Q.** For `C[C@H](O)C(=O)C1=Nc2c(nc(N)[nH]c2=O)NC1` [sepiapterin], which “superoxide production by eNOS bound to the pterin (EPR)” value (eNOS [8]) is on record?
**A.** Its value is “will activate superoxide production”.

**Q.** With `N=C(N)NCCC[C@H](N)C(=O)O` [arginine, L-arginine] as the compound, how does the “production of nitric oxide (total nitrate/nitrite) from substrate by BH2-bound eNOS” value (eNOS [2]) read?
**A.** Its value is “does not cause production of nitric oxide”.

**Q.** What about the “production of nitric oxide (total nitrate/nitrite) from substrate by BH4-bound eNOS” value (eNOS [2]) of the same compound?
**A.** The value was “causes production of nitric oxide”.

**Q.** Which “superoxide production by eNOS bound to the pterin (EPR)” value (eNOS [8]) does the source give for `C[C@H](O)[C@H](O)C1=Nc2c(nc(N)[nH]c2=O)NC1` [BH2, 7,8-dihydrobiopterin] here?
**A.** Its value is “activate superoxide production”.

**Q.** What about the “affinity of binding to eNOS (competition for [3H]BH4 binding)” value (eNOS [9]) of the same compound?
**A.** The value was “bind with equal affinity to eNOS”.

From patent publication US6784178B2, “Pharmacotherapy for vascular dysfunction associated with deficient nitric oxide bioactivity” (Cornell Research Foundation, Inc., priority 2000, dated 2004)
